Values quoted from earlier work, collected in patent US20220202680A1, “INCREASING THE STABILITY OF AGENTS FOR TREATING KERATIN MATERIAL” (Henkel AG & Co. KGaA, priority 2019, published 2022).

Settings: for solubility in water: 25° C.

SMILES | solubility in water | solubility in water (in words) (at 25° C.)
O=S(=O)([O-])c1ccc(N=Nc2c(O)ccc3ccccc23)cc1.[Na+] [Acid Orange 7, sodium salt of 4-[(2-hydroxy-1-naphthyl)azo]benzene sulphonate] | more than 7 g/L | –
Nc1cc(S(=O)(=O)[O-])cc2cc(S(=O)(=O)[O-])c(N=Nc3ccccc3)c(O)c12.[Na+].[Na+] [Acid Red 33, diantrium salt of 5-amino-4-hydroxy-3-(phenylazo)-naphthalene-2,7-disulphonate] | 2500 µg/mL | –
O=C([O-])c1c(Cl)c(Cl)c(Cl)c(Cl)c1-c1c2c(Br)cc(=O)c(Br)c-2oc2c(Br)c(O)cc(Br)c12.O=C([O-])c1c(Cl)c(Cl)c(Cl)c(Cl)c1-c1c2c(Br)cc(=O)c(Br)c-2oc2c(Br)c(O)cc(Br)c12.[Na+].[Na+] [Acid Red 92, disodium salt of 3,4,5,6-tetrachloro-2-(1,4,5,8-tetrabromo-6-hydroxy-3-oxoxanthen-9-yl)benzoic acid] | greater than 10 g/L | –
O=C([O-])C1=NN(c2ccc(S(=O)(=O)[O-])cc2)C(=O)C1N=Nc1ccc(S(=O)(=O)[O-])cc1.[Na+].[Na+].[Na+] (stereo not shown) [Acid Yellow 23, trisodium salt of 4,5-dihydro-5-oxo-1-(4-sulfophenyl)-4-((4-sulfophenyl)azo)-1H-pyrazole-3-carboxylic acid] | – | highly soluble
